Results as given in the supplement of paper PMC10307832.

Columns and labels:
Experiment in all cases: relative viability (nuclei count vs DMSO), 5 days (fraction); higher = more cells survive
[1] = compound: CN(C)CC1=CC(=CC=C1)N=C(C2=CC=CC=C2)C3=C(NC4=C3C=CC(=C4)C(=O)N(C)C)O + Cc1nc(NC(=O)N2CCC[C@H]2C(N)=O)sc1-c1ccnc(C(C)(C)C(F)(F)F)c1 [Alpelisib] (partner 2 µM)
How it was run: (§1)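 Lung cancer cell lines in 1536-well plates got either a single drug or a fixed anchor-drug dose together with five library-drug doses (not always all listed) in √10 steps, by pin tool, on the day after seeding. Nuclei were counted after 5 days, and relative viability is the treated-to-vehicle ratio of nuclei counts. Values are medians of duplicate plates.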

[2] = compound: CN(C)CC1=CC(=CC=C1)N=C(C2=CC=CC=C2)C3=C(NC4=C3C=CC(=C4)C(=O)N(C)C)O + Cc1cc(Nc2cc(N3CCN(C)CC3)nc(Sc3ccc(NC(=O)C4CC4)cc3)n2)n[nH]1 [Tozasertib] (partner 0.1 µM)
How it was run: as §1

[3] = compound: CN(C)CC1=CC(=CC=C1)N=C(C2=CC=CC=C2)C3=C(NC4=C3C=CC(=C4)C(=O)N(C)C)O + CCNC(=O)c1noc(-c2cc(C(C)C)c(O)cc2O)c1-c1ccc(CN2CCOCC2)cc1 [Luminespib] (partner 0.01 µM)
How it was run: as §1

[4] = compound: CN(C)CC1=CC(=CC=C1)N=C(C2=CC=CC=C2)C3=C(NC4=C3C=CC(=C4)C(=O)N(C)C)O + Cc1nc(Nc2ncc(C(=O)Nc3c(C)cccc3Cl)s2)cc(N2CCN(CCO)CC2)n1 [Dasatinib] (partner 0.075 µM)
How it was run: as §1

Row | Cell Line | relative viability ([1]; first compound 0.08 µM) | relative viability ([1]; first compound 0.253 µM) | relative viability ([1]; first compound 0.8 µM) | relative viability ([1]; first compound 2.53 µM) | relative viability ([1]; first compound 8 µM) | relative viability ([2]; first compound 0.08 µM) | relative viability ([2]; first compound 0.253 µM) | relative viability ([2]; first compound 0.8 µM) | relative viability ([2]; first compound 2.53 µM) | relative viability ([2]; first compound 8 µM) | relative viability ([3]; first compound 0.08 µM) | relative viability ([3]; first compound 0.253 µM) | relative viability ([3]; first compound 0.8 µM) | relative viability ([3]; first compound 2.53 µM) | relative viability ([3]; first compound 8 µM) | relative viability ([4]; first compound 0.08 µM) | relative viability ([4]; first compound 0.253 µM) | relative viability ([4]; first compound 0.8 µM) | relative viability ([4]; first compound 2.53 µM) | relative viability ([4]; first compound 8 µM)
1 | NCI-H1734 | 0.624 | 0.71 | 0.643 | 0.693 | 0.5 | 0.259 | 0.262 | 0.227 | 0.268 | 0.247 | 0.206 | 0.168 | 0.164 | 0.25 | 0.174 | 0.473 | 0.46 | 0.441 | 0.394 | 0.39
2 | NCI-H1755 | 0.903 | 0.91 | 0.916 | 0.867 | 0.853 | 0.531 | 0.479 | 0.642 | 0.594 | 0.615 | 0.472 | 0.413 | 0.422 | 0.351 | 0.454 | 0.487 | 0.45 | 0.374 | 0.402 | 0.348
3 | NCI-H1793 | 0.633 | 0.886 | 0.58 | 0.812 | 0.814 | 0.305 | 0.385 | – | 0.368 | 0.347 | 0.19 | 0.249 | – | 0.165 | 0.113 | 0.438 | 0.387 | – | 0.425 | 0.411
4 | NCI-H1915 | 1.12 | 1.05 | 1.11 | 1.05 | 1.02 | 0.474 | 0.409 | 0.432 | 0.407 | 0.414 | 0.745 | 0.745 | 0.811 | 0.836 | 0.667 | 0.365 | 0.369 | 0.318 | 0.323 | 0.292
5 | NCI-H1944 | 0.828 | 0.799 | 0.748 | 0.826 | 0.783 | 0.25 | 0.251 | 0.222 | 0.262 | 0.214 | 0.758 | 0.766 | 0.785 | 0.657 | 0.585 | 0.216 | 0.234 | 0.219 | 0.179 | 0.156
6 | NCI-H1975 | 0.632 | 0.646 | 0.545 | 0.553 | 0.471 | 0.807 | 0.785 | 0.736 | 0.757 | 0.708 | 0.22 | 0.197 | 0.0911 | 0.324 | 0.161 | 0.372 | 0.364 | 0.341 | 0.348 | 0.31
7 | NCI-H1993 | 0.83 | 0.671 | 0.622 | 0.694 | 0.732 | 0.623 | 0.525 | 0.524 | 0.584 | 0.646 | 0.817 | 0.796 | 0.748 | 0.939 | 0.924 | 0.505 | 0.602 | 0.512 | 0.607 | 0.729
8 | NCI-H2009 | 1.15 | 1.11 | 1.1 | 1.04 | 1.05 | 0.767 | 0.723 | 0.721 | 0.551 | 0.699 | 1.04 | 0.999 | 1.11 | 0.96 | 1.05 | 0.238 | 0.328 | 0.349 | 0.333 | 0.253
9 | NCI-H2023 | 0.555 | 0.685 | 0.553 | 0.442 | 0.451 | 0.333 | 0.342 | 0.291 | 0.307 | 0.343 | 0.75 | 0.75 | 0.769 | 0.577 | 0.483 | 0.538 | 0.549 | 0.576 | 0.445 | 0.466
10 | NCI-H2085 | 1.03 | 0.973 | 1.05 | 0.949 | 1.06 | 0.862 | 0.901 | 0.793 | 0.781 | 0.829 | 0.591 | 0.533 | 0.477 | 0.527 | 0.404 | 0.226 | 0.285 | 0.257 | 0.252 | 0.278
11 | NCI-H2087 | 1.14 | 1.24 | 1.15 | 1.15 | 0.992 | 0.242 | 0.233 | 0.265 | 0.27 | 0.233 | 0.164 | 0.197 | 0.232 | 0.167 | 0.172 | 0.953 | 0.835 | 0.914 | 0.794 | 0.793
12 | NCI-H2126 | 0.806 | 0.784 | 0.751 | 0.762 | 0.779 | 0.961 | 0.849 | 0.856 | 0.825 | 0.837 | 0.993 | 0.858 | 0.937 | 0.883 | 0.886 | 0.717 | 0.676 | 0.631 | 0.607 | 0.635
13 | NCI-H2170 | 0.809 | 0.827 | 0.514 | 0.714 | 0.578 | 0.749 | 0.8 | 0.586 | 0.679 | 0.609 | 0.791 | 0.566 | 0.53 | 0.667 | 0.549 | 0.554 | 0.487 | 0.292 | 0.575 | 0.519
14 | NCI-H2228 | 0.452 | 0.753 | 0.859 | 0.687 | 0.588 | 0.221 | 0.332 | 0.265 | 0.228 | 0.232 | 0.134 | 0.152 | 0.142 | 0.164 | 0.137 | 0.518 | 0.484 | 0.479 | 0.424 | 0.412
15 | NCI-H2347 | 1.02 | 0.983 | 1.07 | 1.08 | 1.04 | 0.615 | 0.522 | 0.522 | 0.56 | 0.603 | 0.355 | 0.444 | 0.34 | 0.383 | 0.298 | 0.347 | 0.326 | 0.293 | 0.252 | 0.2
16 | NCI-H2405 | 0.87 | 0.713 | 0.889 | 0.721 | 0.654 | 0.748 | 0.74 | 0.748 | 0.662 | 0.645 | 0.992 | 0.652 | 0.681 | 0.614 | 0.552 | 0.206 | 0.222 | 0.237 | 0.204 | 0.183
